The values below come from PubChem BioAssay AID1259407 (Chemical Carcinogenesis Research Information System (CCRIS), 2018).

Each structure is given as a SMILES string. The source made the active and inactive calls. How the calls were made is not given here.

The series relates to CCRIS mutagenicity, Ames/micronucleus/aberration tests. As to the kind of experiment: CCRIS mutagenicity studies.
The mark [1] stands for this setting: Test System: AMES SALMONELLA TYPHIMURIUM, Strain/Indicator: TA98, Metabolic Activation: NONE, Method: STANDARD PLATE.
Where [2] appears, read: Test System: AMES SALMONELLA TYPHIMURIUM, Strain/Indicator: TA100, Metabolic Activation: NONE, Method: STANDARD PLATE.

Turning to `O=Cc1ccc(CO)o1`, the mutagenic call was “inactive; negative” (End Point: In vivo micronucleus, Test System: Peripheral blood normochromatic erythrocytes, Species: Mouse, Strain/Sex: B6C3F1/Female, Route: Oral); “inactive; negative” (End Point: In vivo micronucleus, Test System: Peripheral blood normochromatic erythrocytes, Species: Mouse, Strain/Sex: B6C3F1/Male, Route: Oral); “inactive; negative” under setting [1]; “active; positive” (Test System: AMES SALMONELLA TYPHIMURIUM, Strain/Indicator: TA98, Metabolic Activation: S-9, Method: STANDARD PLATE); “inactive; negative” under setting [2]; “active; positive” (Test System: AMES SALMONELLA TYPHIMURIUM, Strain/Indicator: TA100, Metabolic Activation: S-9, Method: STANDARD PLATE). In addition, the mutagenic call reads like this: (Test System: AMES SALMONELLA TYPHIMURIUM, Strain/Indicator: TA104, Metabolic Activation: NONE, Method: PREINCUBATION) “inactive; negative”; (Test System: Ames Salmonella typhimurium, Strain/Indicator: TA97, Metabolic Activation: Hamster, Liver, S-9, Aroclor 1254 (10 and 30%), Method: Preincubation) “inactive; negative”; (Test System: Ames Salmonella typhimurium, Strain/Indicator: TA97, Metabolic Activation: None, Method: Preincubation) “inactive; negative”; (Test System: Ames Salmonella typhimurium, Strain/Indicator: TA97, Metabolic Activation: Rat, Liver, S-9, Aroclor 1254 (10 and 30%), Method: Preincubation) “inactive; negative”; (Test System: Ames Salmonella typhimurium, Strain/Indicator: TA98, Metabolic Activation: Hamster, Liver, S-9, Aroclor 1254 (10 and 30%), Method: Preincubation) “inactive; negative”; (Test System: Ames Salmonella typhimurium, Strain/Indicator: TA98, Metabolic Activation: None, Method: Preincubation) “inactive; negative”. Further, the mutagenic call (Test System: Ames Salmonella typhimurium, Strain/Indicator: TA98, Metabolic Activation: Rat, Liver, S-9, Aroclor 1254 (10 and 30%), Method: Preincubation) is “inactive; negative”; the mutagenic call (Test System: Ames Salmonella typhimurium, Strain/Indicator: TA98, Metabolic Activation: Rat, Liver, S-9, Aroclor 1254,10%, Method: Preincubation) was “inactive; negative”; the mutagenic call (Test System: Ames Salmonella typhimurium, Strain/Indicator: TA100, Metabolic Activation: Hamster, Liver, S-9, Aroclor 1254 (10 and 30%), Method: Preincubation) was “inactive; negative”; the mutagenic call (Test System: Ames Salmonella typhimurium, Strain/Indicator: TA100, Metabolic Activation: Rat, Liver, S-9, Aroclor 1254 (10 and 30%), Method: Preincubation) is “inactive; negative”; the mutagenic call (Test System: Ames Salmonella typhimurium, Strain/Indicator: TA100, Metabolic Activation: Rat, Liver, S-9, Aroclor 1254,10%, Method: Preincubation) is “inactive; negative”; the mutagenic call (Test System: Ames Salmonella typhimurium, Strain/Indicator: TA102, Metabolic Activation: Hamster, Liver, S-9, Aroclor 1254 (10 and 30%), Method: Preincubation) is “inactive; negative”. In addition, the mutagenic call reads like this: (Test System: Ames Salmonella typhimurium, Strain/Indicator: TA102, Metabolic Activation: None, Method: Preincubation) “inactive; negative”; (Test System: Ames Salmonella typhimurium, Strain/Indicator: TA102, Metabolic Activation: Rat, Liver, S-9, Aroclor 1254 (10 and 30%), Method: Preincubation) “inactive; negative”; (Test System: Ames Salmonella typhimurium, Strain/Indicator: TA1535, Metabolic Activation: None, Method: Preincubation) “inactive; negative”; (Test System: CHINESE HAMSTER V-79, Strain/Indicator: V-79 (HPRT)/6-THIOGUANINE, Metabolic Activation: NONE, Method: STANDARD PLATE) “active; positive”; (Test System: E. coli, Strain/Indicator: WP2 uvrA/pKM101, Metabolic Activation: None, Method: Preincubation) “inactive; negative”; (Test System: E. coli, Strain/Indicator: WP2 uvrA/pKM101, Metabolic Activation: Rat, Liver, S-9, Aroclor 1254 (10%), Method: Preincubation) “inactive; negative”.

With `CN(C)CCCNc1c2ccccc2nc2ccccc12`, the mutagenic call runs as follows: (Test System: AMES SALMONELLA TYPHIMURIUM, Strain/Indicator: TA98(1,8-DNP6), Metabolic Activation: NONE, Method: STANDARD PLATE) “inactive; negative”; (Test System: AMES SALMONELLA TYPHIMURIUM, Strain/Indicator: TA98(1,8-DNP6), Metabolic Activation: RAT, LIVER, S-9, Method: STANDARD PLATE) “inactive; negative”; (Test System: AMES SALMONELLA TYPHIMURIUM, Strain/Indicator: TA98(NR), Metabolic Activation: NONE, Method: STANDARD PLATE) “inactive; negative”; (Test System: AMES SALMONELLA TYPHIMURIUM, Strain/Indicator: TA98(NR), Metabolic Activation: RAT, LIVER, S-9, Method: STANDARD PLATE) “active; positive”; under setting [1], “inactive; negative”; (Test System: AMES SALMONELLA TYPHIMURIUM, Strain/Indicator: TA98, Metabolic Activation: RAT, LIVER, S-9, Method: STANDARD PLATE) “inactive; negative”. Further, the mutagenic call was “inactive; negative” under setting [2]; “inactive; negative” (Test System: AMES SALMONELLA TYPHIMURIUM, Strain/Indicator: TA1535, Metabolic Activation: NONE, Method: STANDARD PLATE); “active; positive” (Test System: AMES SALMONELLA TYPHIMURIUM, Strain/Indicator: TA1537, Metabolic Activation: NONE, Method: STANDARD PLATE); “active; positive” (Test System: AMES SALMONELLA TYPHIMURIUM, Strain/Indicator: TA1537 PKM101, Metabolic Activation: NONE, Method: STANDARD PLATE); “active; positive” (Test System: AMES SALMONELLA TYPHIMURIUM, Strain/Indicator: TA1538, Metabolic Activation: NONE, Method: STANDARD PLATE); “inactive; negative” (Test System: CHINESE HAMSTER V-79, Strain/Indicator: V-79/6-THIOGUANINE, Metabolic Activation: NONE, Method: STANDARD PLATE). The mutagenic call runs as follows: (Test System: CHINESE HAMSTER V-79, Strain/Indicator: V-79/OUABAIN, Metabolic Activation: NONE, Method: STANDARD PLATE) “inactive; negative”; (Test System: Escherichia coli, Strain/Indicator: CC107 (G6 to G7 frameshifts), Metabolic Activation: None, Method: Modified preincubation) “active; positive”; (Test System: Escherichia coli, Strain/Indicator: CC108 (G6 to G5 frameshifts), Metabolic Activation: None, Method: Modified preincubation) “active; positive”; (Test System: Escherichia coli, Strain/Indicator: CC109 (CG5 to CG4 frameshifts), Metabolic Activation: None, Method: Modified preincubation) “active; positive”; (Test System: Escherichia coli, Strain/Indicator: CC111 (A7 to A6 frameshifts), Metabolic Activation: None, Method: Modified preincubation) “active; positive”.

In the case of `O=[N+]([O-])c1ccc2sncc2c1`, under setting [2], the mutagenic call was “active; positive”.
